SMILES strings stand for the structures.

In this series the test system is HeLa cells. It is filed as cell-based, human. Particulars: MTT, concluding statement.

On to `Cc1ncc(-c2cc(F)c(O)c(F)c2)cc1-c1cc(F)c(O)c(F)c1` [compound 26], for which the “toxicity to human cells” value is reported as “not overtly toxic”.

These data come from article PMC6746079, “Development of Pyridine-based Inhibitors for the Human Vaccinia-related Kinases 1 and 2” (ACS Medicinal Chemistry Letters, 2019).
